The target in assay [1] is T1, human GIP receptor (GIP R) (Homo sapiens, UniProt P48546).
T1 sequence (P48546 22-466): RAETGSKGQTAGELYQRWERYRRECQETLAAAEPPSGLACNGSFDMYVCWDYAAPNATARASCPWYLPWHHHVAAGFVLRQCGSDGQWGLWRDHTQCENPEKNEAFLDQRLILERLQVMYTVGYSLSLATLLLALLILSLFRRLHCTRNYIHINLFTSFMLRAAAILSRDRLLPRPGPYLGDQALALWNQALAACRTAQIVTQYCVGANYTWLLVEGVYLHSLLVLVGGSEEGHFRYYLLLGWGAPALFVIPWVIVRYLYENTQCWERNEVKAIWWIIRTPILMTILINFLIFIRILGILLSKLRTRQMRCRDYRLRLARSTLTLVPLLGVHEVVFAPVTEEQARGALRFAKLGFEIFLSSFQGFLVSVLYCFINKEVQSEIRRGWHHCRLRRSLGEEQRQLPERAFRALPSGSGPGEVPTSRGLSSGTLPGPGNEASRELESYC
The assay is described as follows: Activity assay at human GIP receptor, cAMP induction (AlphaScreen), Example 3. On the technique in general: Bead proximity is the source of the signal in Alpha formats.

The target in another assay is T2, human GIP R (Homo sapiens, UniProt P48546).
T2 sequence (P48546 22-466): T1 sequence (P48546 22-466)
The assay is described as follows: cell-based.

Assay [2] concerns the target human GLP-1 receptor (GLP-1R) (Homo sapiens, UniProt P43220). The assay is described as follows: Activity assay at human GLP-1 receptor, cAMP induction (AlphaScreen), Example 3.

In patent US12703729B2, “GIP agonist compounds and methods” (Zealand Pharma A/S, priority 2014, dated 2026) one finds EC50 data, which are given here for 6 molecules.

Molecules are shown by their SMILES. Starred links: 1 amine or outer side, 2 acyl side, 3 side chain; linkers in the order of their positions; H or OH if unused. Non-standard residues stand in square brackets, D forms with d. Residues, ends and D or L forms follow the SMILES beside them. Groups on a side chain read outwards from the residue. *: point of attachment. C20 diacid = O=C(O)CCCCCCCCCCCCCCCCCCC(=O)*; γGlu = O=C(O)[C@H](CCC(=O)[*:2])N[*:1]; Palmitoyl = CCCCCCCCCCCCCCCC(=O)*; AEEA = NCCOCCOCC(=O)O; Aib = CC(C)(N)C(=O)O

As usually defined, the EC50 is the concentration giving half of the maximal effect. Higher therefore signals lower potency in that assay.

Chain of human GLP-1 receptor (GLP-1R) (P43220 24-463): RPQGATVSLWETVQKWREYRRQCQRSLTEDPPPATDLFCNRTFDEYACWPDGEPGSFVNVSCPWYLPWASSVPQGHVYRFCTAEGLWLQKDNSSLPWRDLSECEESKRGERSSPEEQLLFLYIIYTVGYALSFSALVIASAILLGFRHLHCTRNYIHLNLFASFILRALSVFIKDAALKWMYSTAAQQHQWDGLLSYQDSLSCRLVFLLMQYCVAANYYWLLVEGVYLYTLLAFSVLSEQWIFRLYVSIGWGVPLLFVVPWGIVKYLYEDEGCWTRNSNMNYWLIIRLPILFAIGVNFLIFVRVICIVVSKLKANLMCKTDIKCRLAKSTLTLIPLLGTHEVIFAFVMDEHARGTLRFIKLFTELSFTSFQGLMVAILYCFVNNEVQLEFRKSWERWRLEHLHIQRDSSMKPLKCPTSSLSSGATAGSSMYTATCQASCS

Take `CCCCCCCCCCCCCCCC(=O)N[C@@H](CCC(=O)NCCCC[C@H](NC(=O)[C@H](CO)NC(=O)[C@@H]1CCCN1C(=O)[C@@H]1CCCN1C(=O)[C@@H]1CCCN1C(=O)[C@H](C)NC(=O)CNC(=O)[C@H](CO)NC(=O)[C@H](CO)NC(=O)[C@@H]1CCCN1C(=O)CNC(=O)[C@H](CCC(N)=O)NC(=O)[C@H](C)NC(=O)[C@H](CC(C)C)NC(=O)[C@H](CC(C)C)NC(=O)[C@H](Cc1c[nH]c2ccccc12)NC(=O)[C@H](CC(N)=O)NC(=O)[C@@H](NC(=O)[C@H](Cc1ccccc1)NC(=O)[C@H](CC(=O)O)NC(=O)[C@H](CCC(N)=O)NC(=O)[C@H](CCC(N)=O)NC(=O)[C@H](Cc1c[nH]cn1)NC(=O)[C@@H](NC(=O)[C@H](CCCCN)NC(=O)[C@H](CC(=O)O)NC(=O)[C@H](CC(C)C)NC(=O)[C@H](CCC(=O)O)NC(=O)[C@@H](NC(=O)[C@H](CO)NC(=O)[C@H](Cc1ccc(O)cc1)NC(=O)[C@H](CC(=O)O)NC(=O)[C@H](CO)NC(=O)[C@@H](NC(=O)[C@H](Cc1ccccc1)NC(=O)[C@@H](NC(=O)CNC(=O)[C@H](CCC(=O)O)NC(=O)C(C)(C)NC(=O)[C@@H](N)Cc1ccc(O)cc1)[C@@H](C)O)[C@@H](C)CC)[C@@H](C)CC)[C@@H](C)CC)C(C)C)C(N)=O)C(=O)O` [Compound 5] (H-Y[Aib]EGTFISDYSIELDKIHQQDFVNWLLAQGPSSGAPPPSK([γGlu-Palmitoyl])-NH2): the EC50 (in assay [1]; on human GIP R) was 0.014 nM each time.

`CCCCCCCCCCCCCCCC(=O)N[C@@H](CCC(=O)NCCCC[C@H](NC(=O)[C@H](CCC(N)=O)NC(=O)[C@H](C)NC(=O)[C@H](CC(C)C)NC(=O)[C@H](CC(C)C)NC(=O)[C@H](Cc1c[nH]c2ccccc12)NC(=O)[C@H](CC(N)=O)NC(=O)[C@@H](NC(=O)[C@H](Cc1ccccc1)NC(=O)[C@H](CC(=O)O)NC(=O)[C@H](CCC(N)=O)NC(=O)[C@H](CCC(N)=O)NC(=O)[C@H](Cc1c[nH]cn1)NC(=O)[C@@H](NC(=O)[C@H](CCCCN)NC(=O)[C@H](CC(=O)O)NC(=O)[C@H](CC(C)C)NC(=O)[C@H](CCC(=O)O)NC(=O)[C@@H](NC(=O)[C@H](CO)NC(=O)[C@H](Cc1ccc(O)cc1)NC(=O)[C@H](CC(=O)O)NC(=O)[C@H](CO)NC(=O)[C@@H](NC(=O)[C@H](Cc1ccccc1)NC(=O)[C@@H](NC(=O)CNC(=O)[C@H](CCC(=O)O)NC(=O)C(C)(C)NC(=O)[C@@H](N)Cc1ccc(O)cc1)[C@@H](C)O)[C@@H](C)CC)[C@@H](C)CC)[C@@H](C)CC)C(C)C)C(N)=O)C(=O)O` [Compound 6] (H-Y[Aib]EGTFISDYSIELDKIHQQDFVNWLLAQK([γGlu-Palmitoyl])-NH2): the EC50 stood at 0.014 nM in assay [1] and 0.032 nM on human GIP R.

Consider `CC[C@H](C)[C@H](NC(=O)[C@H](CO)NC(=O)[C@H](Cc1ccc(O)cc1)NC(=O)[C@H](CC(=O)O)NC(=O)[C@H](CO)NC(=O)[C@@H](NC(=O)[C@H](Cc1ccccc1)NC(=O)[C@@H](NC(=O)CNC(=O)[C@H](CCC(=O)O)NC(=O)C(C)(C)NC(=O)[C@@H](N)Cc1ccc(O)cc1)[C@@H](C)O)[C@@H](C)CC)C(=O)N[C@@H](CCC(=O)O)C(=O)N[C@@H](CC(C)C)C(=O)N[C@@H](CC(=O)O)C(=O)N[C@@H](CCCCN)C(=O)N[C@@H](CCCCNC(=O)COCCOCCNC(=O)COCCOCCNC(=O)CC[C@H](NC(=O)CCCCCCCCCCCCCCCCCCC(=O)O)C(=O)O)C(=O)N[C@@H](Cc1c[nH]cn1)C(=O)N[C@@H](CCC(N)=O)C(=O)N[C@@H](CCC(N)=O)C(=O)N[C@@H](CC(=O)O)C(=O)N[C@@H](Cc1ccccc1)C(=O)N[C@H](C(=O)N[C@@H](CC(N)=O)C(=O)N[C@@H](Cc1ccc(O)cc1)C(=O)N[C@@H](CC(C)C)C(=O)N[C@@H](CC(C)C)C(=O)N[C@@H](C)C(=O)N[C@@H](CCC(N)=O)C(=O)NCC(=O)N1CCC[C@H]1C(=O)N[C@@H](CO)C(=O)N[C@@H](CO)C(=O)NCC(=O)N[C@@H](C)C(=O)N1CCC[C@H]1C(=O)N1CCC[C@H]1C(=O)N1CCC[C@H]1C(=O)N[C@@H](CO)C(N)=O)C(C)C` [Compound 8] (H-Y[Aib]EGTFISDYSIELDKK([AEEA-AEEA-γGlu-C20 diacid])HQQDFVNYLLAQGPSSGAPPPS-NH2), for which the results for the EC50 (in assay [2]; on human GIP R) were > 10 nM and 0.009 nM, respectively.

In the case of `CC[C@H](C)[C@H](NC(=O)[C@H](CO)NC(=O)[C@H](Cc1ccc(O)cc1)NC(=O)[C@H](CC(=O)O)NC(=O)[C@H](CO)NC(=O)[C@@H](NC(=O)[C@H](Cc1ccccc1)NC(=O)[C@@H](NC(=O)CNC(=O)[C@H](CCC(=O)O)NC(=O)C(C)(C)NC(=O)[C@@H](N)Cc1ccc(O)cc1)[C@@H](C)O)[C@@H](C)CC)C(=O)N[C@@H](CCC(=O)O)C(=O)N[C@@H](CC(C)C)C(=O)N[C@@H](CC(=O)O)C(=O)N[C@@H](CCCCN)C(=O)N[C@@H](CCCCNC(=O)COCCOCCNC(=O)COCCOCCNC(=O)CC[C@H](NC(=O)CCCCCCCCCCCCCCCCCCC(=O)O)C(=O)O)C(=O)N[C@@H](Cc1c[nH]cn1)C(=O)N[C@@H](CCC(N)=O)C(=O)N[C@@H](CCC(N)=O)C(=O)N[C@@H](CC(=O)O)C(=O)N[C@@H](Cc1ccccc1)C(=O)N[C@H](C(=O)N[C@@H](CC(N)=O)C(=O)N[C@@H](Cc1c[nH]c2ccccc12)C(=O)N[C@@H](CC(C)C)C(=O)N[C@@H](CC(C)C)C(=O)N[C@@H](C)C(=O)N[C@@H](CCC(N)=O)C(=O)NCC(=O)N1CCC[C@H]1C(=O)N[C@@H](CO)C(=O)N[C@@H](CO)C(=O)NCC(=O)N[C@@H](C)C(=O)N1CCC[C@H]1C(=O)N1CCC[C@H]1C(=O)N1CCC[C@H]1C(=O)N[C@@H](CO)C(N)=O)C(C)C` [Compound 9] (H-Y[Aib]EGTFISDYSIELDKK([AEEA-AEEA-γGlu-C20 diacid])HQQDFVNWLLAQGPSSGAPPPS-NH2), the EC50 in assay [2] was > 3 nM; in assay [1] it was 0.009 nM; at human GIP R, 0.008 nM.

For the molecule `CC[C@H](C)[C@H](NC(=O)[C@H](CO)NC(=O)[C@H](Cc1ccc(O)cc1)NC(=O)[C@H](CC(=O)O)NC(=O)[C@H](CO)NC(=O)[C@@H](NC(=O)[C@H](Cc1ccccc1)NC(=O)[C@@H](NC(=O)CNC(=O)[C@H](CCC(=O)O)NC(=O)C(C)(C)NC(=O)[C@@H](N)Cc1ccc(O)cc1)[C@@H](C)O)[C@@H](C)CC)C(=O)N[C@@H](CCC(=O)O)C(=O)N[C@@H](CC(C)C)C(=O)N[C@@H](CCC(=O)O)C(=O)N[C@@H](CCCCN)C(=O)N[C@@H](CCCCNC(=O)COCCOCCNC(=O)COCCOCCNC(=O)CC[C@H](NC(=O)CCCCCCCCCCCCCCCCCCC(=O)O)C(=O)O)C(=O)N[C@@H](C)C(=O)N[C@@H](C)C(=O)N[C@@H](CCCCN)C(=O)N[C@@H](CCC(=O)O)C(=O)N[C@@H](Cc1ccccc1)C(=O)N[C@H](C(=O)N[C@@H](CC(N)=O)C(=O)N[C@@H](Cc1c[nH]c2ccccc12)C(=O)N[C@@H](CC(C)C)C(=O)N[C@@H](CC(C)C)C(=O)N[C@@H](C)C(=O)N[C@@H](CCC(N)=O)C(=O)NCC(=O)N1CCC[C@H]1C(=O)N[C@@H](CO)C(=O)N[C@@H](CO)C(=O)NCC(=O)N[C@@H](C)C(=O)N1CCC[C@H]1C(=O)N1CCC[C@H]1C(=O)N1CCC[C@H]1C(=O)N[C@@H](CO)C(N)=O)C(C)C` [Compound 11] (H-Y[Aib]EGTFISDYSIELEKK([AEEA-AEEA-γGlu-C20 diacid])AAKEFVNWLLAQGPSSGAPPPS-NH2), the EC50 is > 3 nM in assay [2], 0.008 nM in assay [1] and 0.009 nM on human GIP R.

Regarding `CC[C@H](C)[C@H](NC(=O)[C@H](CCCCN)NC(=O)[C@H](CCC(=O)O)NC(=O)[C@H](CC(C)C)NC(=O)[C@H](CCC(=O)O)NC(=O)[C@@H](NC(=O)[C@H](CO)NC(=O)[C@H](Cc1ccc(O)cc1)NC(=O)[C@H](CC(=O)O)NC(=O)[C@H](CO)NC(=O)[C@@H](NC(=O)[C@H](Cc1ccccc1)NC(=O)[C@@H](NC(=O)CNC(=O)[C@H](CCC(=O)O)NC(=O)C(C)(C)NC(=O)[C@@H](N)Cc1ccc(O)cc1)[C@@H](C)O)[C@@H](C)CC)[C@@H](C)CC)C(=O)N[C@@H](C)C(=O)N[C@@H](CCC(N)=O)C(=O)N[C@@H](CCCNC(=N)N)C(=O)N[C@@H](C)C(=O)N[C@@H](Cc1ccccc1)C(=O)N[C@H](C(=O)N[C@@H](CCC(=O)O)C(=O)N[C@@H](Cc1c[nH]c2ccccc12)C(=O)N[C@@H](CC(C)C)C(=O)N[C@@H](CC(C)C)C(=O)N[C@@H](C)C(=O)N[C@@H](CCC(N)=O)C(=O)N[C@@H](CCCCNC(=O)COCCOCCNC(=O)COCCOCCNC(=O)CC[C@H](NC(=O)CCCCCCCCCCCCCCCCCCC(=O)O)C(=O)O)C(N)=O)C(C)C` [Compound 14] (H-Y[Aib]EGTFISDYSIELEKIAQRAFVEWLLAQK([AEEA-AEEA-γGlu-C20 diacid])-NH2), the figures for the EC50 (in assay [2]; in assay [1]; at human GIP R) were > 10 nM, 0.014 nM and 0.024 nM, respectively.
